In patent publication US9018395B2, “Pyrazolopyridine and pyrazolopyrimidine derivatives as melanocortin-4 receptor modulators” (Université de Montréal, priority 2011, dated 2015):

Target: T1, wild-type human melanocortin 4 receptor (WT-hMC4R) (Homo sapiens, UniProt P32245)
T1 construct: expressed in transfected cells; cDNA from UMR cDNA resource center
Assay: Cyclic AMP assay (HTRF), antagonist competition against NDP-α-MSH
Type: cell-based
Settings: HEK293T cells expressing double-tagged WT-hMC4R; cAMP accumulation; 1 hour compound then 4 nM NDP-α-MSH 30 min
Method: Intracellular cyclic 3′-5′ adenosine monophosphate (cAMP) accumulation was measured using a competitive immunoassay based on HTRF (Homogeneous Time-Resolved Fluorescence) technology (cAMP dynamic-2, Cis-Bio).
HEK293T stable cell line expressing double-tagged WT-hMC4R construct were collected and washed in cAMP buffer (1XD-PBS pH 7.4, 0.1% glucose). 40,000 cells/well were then dispensed in 96-well plates in cAMP buffer [1XD-PBS, 1% BSA, 0.1% Glucose, 0.75 mM 3-isobutyl-1methyl-xanthine (IBMX, Sigma)] and incubated either for antagonist competition assay: 1 hour at 37° C. with various concentrations of compound [0.01 nM-10 μM] followed by 30 min incubation at 37° C. with 4 nM of NDP-α-MSH (Sigma) or for agonist assay: 1 hour at 37° C. with various concentrations of compound [0.01 nM-10 μM]. 10,000 cells were transferred in 384-well plates, lysed and incubated with cAMP labeled with the dye d2 and anti-cAMP M-Antibody labeled with Cryptate following the manufacturer's protocol.
Reading of HTRF signal was performed on Artemis TR-FRET plate reader (Cosmo Bio).
All curve fitting was conducted using non-linear regression analyses from PRISM (version 4.0c, GraphPad Inc.) and the determination of Rmax and EC50 or IC50 parameters were obtained from sigmoidal dose-response phase (variable slope) equation.
A cDNA encoding a wild-type human MC4R with a 3 tandem copies of Hemaglutinine (HA) epitote sequence from UMR cDNA resource center was modified using known techniques in the art (e.g., PCR, cloning) to fused in frame at the C-terminal a venus-Yellow Fluorescent Protein (YFP) cDNA.
The resultant cDNA was then subcloned in eukaryotic expression vector, e.g. pcDNA 3.1(+) (Invitrogen).
The double tagged WT-hMC4R was transfected in HEK293T cells with lipofectamine (Invitrogen) following the manufacturer's instructions and permanently transfected clonal cell lines were selected by resistance to the neomycin analog G418.
HEK293T stable cell line expressing wild-type human melanocortin 4 receptor (WT-hMC4R) containing an N-terminal 3xHA epitope tag and an intracellular C-terminal venus-yellow fluorescent protein (v-YFP) were maintained at 37° C. in humidified air containing 5% CO2 in Dulbecoo's modified Eagle's medium (DMEM) supplemented with 10% fetal bovine serum (FBS), 100 U/ml penicillin/streptomycin (DMEM complete/10% FBS). Cells were generally at 70%-80% confluence on the day of assay.

T1 sequence (P32245 whole entry): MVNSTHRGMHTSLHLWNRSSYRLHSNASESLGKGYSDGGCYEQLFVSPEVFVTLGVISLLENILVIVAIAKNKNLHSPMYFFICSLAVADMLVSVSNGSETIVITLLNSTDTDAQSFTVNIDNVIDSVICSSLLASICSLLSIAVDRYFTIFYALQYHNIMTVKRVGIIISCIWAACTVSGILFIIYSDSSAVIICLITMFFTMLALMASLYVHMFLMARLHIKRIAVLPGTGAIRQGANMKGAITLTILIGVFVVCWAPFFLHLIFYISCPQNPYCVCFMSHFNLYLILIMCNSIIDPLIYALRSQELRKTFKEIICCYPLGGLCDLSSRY

Compound	IC50
COc1ccc(-c2nn3ccc(C(=O)N(CCC4CC4)CCC4CC4)cc3c2/C=C/CN2CCCCC2)cc1 [Example 108]	1 to 5 µM
COc1ccc(-c2nn3ccc(C(=O)N(CCC(C)C)CCC(C)C)cc3c2C#CCN2CCCCC2)cc1 [Example 109]	1 to 5 µM
CCCCN(C/C=C/c1c(-c2ccc(OC)cc2)nn2ccc(C(=O)N(CCCC)CCCC)cc12)CCCC [Example 110]	5 to 15 µM
COc1ccc(-c2nn3ccc(C(=O)N(CCC(C)C)CCC(C)C)cc3c2CCCN2CCCCCC2)cc1 [Example 111]	1 to 5 µM
CCCCN(CCCC)CCCc1c(-c2ccc(OC)cc2)nn2ccc(C(=O)N(CCCC)CCCC)cc12 [Example 112]	1 to 5 µM
COc1ccc(Cl)cc1-c1nn2ccc(C(=O)N(CCC(C)C)CCC(C)C)cc2c1/C=C/CN1CCCCC1 [Example 113]	1 to 5 µM
COc1ccc(Cl)cc1-c1nn2ccc(C(=O)N(CCC(C)C)CCC(C)C)cc2c1CCCN1CCCCC1 [Example 114]	1 to 5 µM
CC(=O)c1ccc(-c2nn3ccc(C(=O)N(CCC(C)C)CCC(C)C)cc3c2/C=C/CN2CCOCC2)cc1 [Example 115]	1 to 5 µM
COc1ccc(Cl)cc1-c1nn2ccc(C(=O)N(CCC(C)C)CCC(C)C)cc2c1CCCN1CCCC1 [Example 116]	1 to 5 µM
COc1ccc(NC(=O)c2nn3ccc(C(=O)N(CCC(C)C)CCC(C)C)cc3c2/C=C/CN2CCCCC2)cc1 [Example 117]	1 to 5 µM
CC(C)CCN(CCC(C)C)C(=O)c1ccn2nc(-c3ccc(C(C)O)cc3)c(CCCN3CCOCC3)c2c1 (stereo not drawn) [Example 118]	1 to 5 µM
CC(C)CCN(CCC(C)C)C(=O)c1ccn2nc(C(C)(C)C)c(CCCN3CCCCC3)c2c1 [Example 119]	< 0.5 µM
CC(C)CCN(CCC(C)C)C(=O)c1ccn2nc(-c3ccc(C(=N)N)cc3)c(CCCN3CCCCC3)c2c1 [Example 120]	< 0.5 µM
CC(=O)c1ccc(-c2nn3ccc(C(=O)N(CCC(C)C)CCC(C)C)cc3c2CCCN2CCOCC2)cc1 [Example 121]	1 to 5 µM
CCOC(=O)c1ccc(NC(=O)c2nn3ccc(C(=O)N(CCC(C)C)CCC(C)C)cc3c2/C=C/CN2CCCCC2)cc1 [Example 122]	1 to 5 µM
COc1ccc(-c2nn3ccc(C(=O)N(CCC(C)C)CCC(C)C)cc3c2/C=C/CN2CCOCC2)cc1 [Example 123]	1 to 5 µM
COc1ccc(-c2nn3ccc(C(=O)N(CCC(C)C)CCC(C)C)cc3c2CCCN2CCOCC2)cc1 [Example 124]	< 0.5 µM
CCOC(=O)c1ccc(NC(=O)c2nn3ccc(C(=O)N(CCC(C)C)CCC(C)C)cc3c2CCCN2CCCCC2)cc1 [Example 125]	1 to 5 µM
CC(C)CCN(CCC(C)C)C(=N)c1ccn2nc(-c3ccc(C(N)=O)cc3)c(CCCN3CCCCC3)c2c1 [Example 126]	< 0.5 µM
CC(C)CCN(CCC(C)C)C(=N)c1ccn2nc(-c3ccccc3)c(CCCN3CCCCC3)c2c1 [Example 127]	0.5 to 1 µM
CC(C)CCN(CCC(C)C)C(=O)c1ccn2nc(C(C)(C)C)c(/C=C/CN3CCCCC3)c2c1 [Example 128]	1 to 5 µM
COc1ccc(-c2nn3ccc(C(=O)N(CCC(C)C)CCC(C)C)cc3c2CCCN(C)C2CCNCC2)cc1 [Example 129]	0.5 to 1 µM
COc1ccc(-c2nn3ccc(C(=O)N(CCC4CC4)CCC4CC4)cc3c2CCCN2CCCCC2)cc1 [Example 130]	0.5 to 1 µM
COc1ccc(-c2nn3ccc(N(CCC(C)C)CCC(C)C)cc3c2CCCN2CCCCC2)cc1 [Example 131]	5 to 15 µM
CC(C)CCN(CCC(C)C)C(=O)c1ccn2nc(Br)c(/C=C/CN3CCCCC3)c2c1 [Example 132]	1 to 5 µM
CC(C)CCN(CCC(C)C)C(=O)c1ccn2nc(C(=O)Nc3ccc(C(=O)N4CCOCC4)cc3)c(CCCN3CCCCC3)c2c1 [Example 133]	5 to 15 µM
CC(C)CCN(CCC(C)C)C(=O)c1ccn2nc(-c3ccc(-c4noc(-c5ccccc5)n4)cc3)c(CCCN3CCCCC3)c2c1 [Example 134]	1 to 5 µM

Compound	IC50
Cc1nc(-c2ccc(-c3nn4ccc(C(=O)N(CCC(C)C)CCC(C)C)cc4c3CCCN3CCCCC3)cc2)no1 [Example 135]	< 0.5 µM
CC(C)CCN(CCC(C)C)C(=O)c1ccn2nc(-c3ccc(-c4noc(C(F)(F)F)n4)cc3)c(CCCN3CCCCC3)c2c1 [Example 136]	1 to 5 µM
COc1ccc(Cl)cc1-c1nn2ccc(C(=O)N(CCC(C)C)CCC(C)C)cc2c1-c1ccc(CN2CCCCC2)cc1 [Example 137]	1 to 5 µM
COc1ccc(Nc2nn3ccc(C(=O)N(CCC(C)C)CCC(C)C)cc3c2/C=C/CN2CCCCC2)cc1 [Example 138, (E)-N,N-diisopentyl-2-((4-methoxphenyl)amino)-3-(3-(piperidin-1-yl)prop-1-en-1-yl)pyrazolo[1,5-a]pyridine-5-carboxamide]	< 0.5 µM
CC(C)CCN(CCC(C)C)C(=O)c1ccn2nc(-c3ccc(-c4noc(-c5ccncc5)n4)cc3)c(CCCN3CCCCC3)c2c1 [Example 139]	< 0.5 µM
CC(C)CCN(CCC(C)C)C(=O)c1ccn2nc(-c3ccc(-c4noc(Cc5ccc(F)cc5)n4)cc3)c(CCCN3CCCCC3)c2c1 [Example 140]	5 to 15 µM
CC(C)CCN(CCC(C)C)C(=O)c1ccn2nc(C(=O)N3CCOCC3)c(CCCN3CCCCC3)c2c1 [Example 141, N,N-diisopentyl-2-(morpholine-4-carbonyl)-3-(3-(piperidin-1-yl)propyl)pyrazolo[1,5-a]pyridine-5-carboxamide]	5 to 15 µM
COc1ccc(Nc2nn3ccc(C(=O)N(CCC(C)C)CCC(C)C)cc3c2CCCN2CCCCC2)cc1 [Example 142, N,N-diisopentyl-2-((4-methoxyphenyl)amino)-3-(3-(piperidin-1-yl)propyl)pyrazolo[1,5-a]pyridine-5-carboxamide]	< 0.5 µM
CC(C)CCN(CCC(C)C)C(=S)c1ccn2nc(-c3ccccc3)c(CCCN3CCCCC3)c2c1 [Example 143]	1 to 5 µM
CC(C)CCN(CCC(C)C)Cc1ccn2nc(-c3ccccc3)c(CCCN3CCCCC3)c2c1 [Example 144]	5 to 15 µM
COc1ccc(-c2nn3ccc(C(=O)N(CCC(C)C)CCC(C)C)cc3c2/C=C/CN2CCC(C)CC2)cc1 [Example 145]	< 0.5 µM
COc1ccc(-c2nn3ccc(C(=O)N(CCC(C)C)CCC(C)C)cc3c2CCCN2CCC(C)CC2)cc1 [Example 146]	1 to 5 µM
CCOc1ccc(-c2nn3ccc(C(=O)N(CCC(C)C)CCC(C)C)cc3c2/C=C/CN2CCOCC2)cc1 [Example 147]	5 to 15 µM
COc1ccc(-c2nn3ccc(C(=O)N(CCC(C)C)CCC(C)C)cc3c2CCN2CCCCC2)cc1 [Example 149, N,N-diisopentyl-2-(4-methoxyphenyl)-3-(2-(piperidin-1-yl)ethyl)pyrazolo[1,5-a]pyridine-5-carboxamide]	5 to 15 µM
COc1ccc(-c2nn3ccc(C(=O)N(CCC(C)C)CCC(C)C)cc3c2/C=C/CNCc2ccccc2)cc1 [Example 150]	5 to 15 µM
COc1ccccc1-c1nn2ccc(C(=O)N(CCC(C)C)CCC(C)C)cc2c1CCCN1CCCCC1 [Example 151]	1 to 5 µM
COc1ccc(Nc2nn3ccc(C(=O)N(CCC(C)C)CCC(C)C)cc3c2C(=O)NCCN2CCCCC2)cc1 [Example 152]	0.5 to 1 µM
CNC/C=C/c1c(-c2ccc(OC)cc2)nn2ccc(C(=O)N(CCC(C)C)CCC(C)C)cc12 [Example 153]	5 to 15 µM
COc1ccc(-c2nn3ccc(C(=O)N(CCC(C)C)CCC(C)C)cc3c2CCCN)cc1 [Example 154]	5 to 15 µM
COc1ccc(-c2nn3ccc(C(=O)N(CCC(C)C)CCC(C)C)cc3c2CCCNCc2ccccc2)cc1 [Example 155]	1 to 5 µM
COc1ccc(-c2nn3ccc(C(=O)N(CCC(C)C)CCC(C)C)cc3c2CCCN2CCC2)cc1 [Example 156]	1 to 5 µM
CNCCCc1c(-c2ccc(OC)cc2)nn2ccc(C(=O)N(CCC(C)C)CCC(C)C)cc12 [Example 157]	5 to 15 µM
COc1ccc(-c2nn3ccc(C(=O)N(CCC(C)C)CCC(C)C)cc3c2/C=C/CN2CCCC(F)C2)cc1 (stereo not drawn) [Example 158]	1 to 5 µM
COc1ccc(-c2nn3ccc(C(=O)N(CCC(C)C)CCC(C)C)cc3c2/C=C/CN2CCCOCC2)cc1 [Example 159]	0.5 to 1 µM
COc1ccc(-c2nn3ccc(C(=O)N(CCC(C)C)CCC(C)C)cc3c2CCCN2[C@H](C)CCC[C@@H]2C)cc1 [Example 160]	1 to 5 µM
COc1ccc(-c2nn3ccc(C(=O)N(CCC(C)C)CCC(C)C)cc3c2CCCN2CCCC(F)C2)cc1 (stereo not drawn) [Example 161]	1 to 5 µM
COc1ccc(-c2nn3ccc(C(=O)N(CCC(C)C)CCC(C)C)cc3c2CCCN2CCCOCC2)cc1 [Example 162]	0.5 to 1 µM
